Laboratory results as given in patent US20130244875A1, “METHODS AND COMPOSITIONS FOR IMPROVING PLANT HEALTH” (priority 2006, published 2013).
Several values for one entry are separate records, joined by “and”; a condition that tells them apart may be missing. Equal values may be shown once.

Experiments:
Assay type in all cases: in vivo
Pythium ultimum = Pythium ultimum inoculation of cotton seedlings after spray; details: same conditions kill plants not contacted with 3,6-DCSA
Method: Ten-day old Roundup Ready® Flex Cotton (Event MON 88913; U.S. Publ. 20060059590) seedlings were sprayed with a mixture of Roundup Weather Max® (Monsanto Company, St. Louis, Mo.) and 3,6-DCSA (BASF). The control plants were sprayed with water only. The cotton seedlings from both treatments were inoculated with Pythium ultimum by dipping seedling into inoculum slurry, 24 hours after the spray application. The positive control plants were neither sprayed nor inoculated with P. ultimum. […] Cotton plants treated with Roundup® and DCSA were as healthy as were the plants not inoculated with P. ultimum.

soybean plants [1] = test: Ozone tolerance of soybeans; details: 0.5 lbs/A DCSA about 72 hours before, 10 hours
Method: Many plants are sensitive to ozone (O3), soybeans are particularly sensitive to ozone damage and show leaf flecking and chlorosis. Ozone can be produced in the atmosphere by a photochemical process in air polluted environments. Soybean production can be affected by ozone when soybeans are cultivated near urban areas or air pollution from urban areas is distributed to agricultural areas where soybeans are grown. An experiment was conducted to determine if DCSA treatment of soybean plants will provide tolerance to oxidative stress caused by ozone. Soybeans were treated with 0.5 lbs/A DCSA approximately 72 hours before exposure to ozone. Controls had no DCSA treatment. Four plants were treated with ozone in one 72 quart sterilite container with a clear plexiglass lid. Ozone was generated at 2 concentrations in the container with the plants at a low rate (2.8 ppm, parts per million) or a high rate (770 ppm) and the plants exposed for 10 hours at these concentrations. Light levels at plant height were ˜400μ Einsteins m-2 s-1, enough to insure photosynthesis. Air in the container was mixed using a small fan to insure proper exposure. Plants were removed from the treatment container and placed in a growth chamber to observe symptom development.

Meloidogyne incognita = test: Control of cotton root knot nematode (RKN) by DCSA
Method: DCSA was unexpectedly found to control RKN gall formation, improve plant height and reduce number of eggs produced by the nematode in cotton plants (ST474) (Table 5). Ten to fourteen days old cotton plants were treated with DCSA at the rate of 1 lb/A, 24 hrs before inoculating them with RKN eggs. […] Plant height, gall rating, and egg counts were measured 45 days after inoculation. The gall rating scale was 0-5 with 0=no visible galling and 5=heavy galling.

[2] = tested on: PR-2, i.e., β-1,3-glucanase; test: Induction of PR2 (northern blot) in DMO soybean sprayed with dicamba or DCSA; details: two transgenic soybean lines; 0.25, 0.5 and 1 lb/Acre; 24 hrs after treatment; no induction in untreated or water only
Method: A 14 hour minimum photoperiod was provided with supplemental light at about 600 μE (micro-Einsteins) as needed. Trials were established in a randomized block design randomized by rate with 4 to 6 replications of each treatment.
All herbicide applications were made with the track sprayer using a Teejet® 9501E flat fan nozzle (Spraying Systems Co, Wheaton, Ill.) with air pressure set at a minimum of 24 psi (pounds per square inch), or 165 kpa (kilopascals)). The spray nozzle was kept at a height of about 16 inches above the top of plant material for spraying. The spray volume was 10 gallons per acre or 93 liters per hectare. Applications were made when plants had reached V-3 stage.
Events carrying a DMO transgene in their genome were grown and treated with dicamba (Clarity®, BASF) at 1 lb/Acre at Post-V3 stage. Leaf samples were harvested after 0, 3, 8, 24, 48, 72 hrs after treatment (HAT) and frozen for further analysis. In another experiment, DMO-containing plants were sprayed with either dicamba or DCSA at 0.25, 0.5 and 1 lb/Acre rate and tissue samples were collected 24 HAT. RNA was extracted and analyzed by northern blot analysis using PR-2, i.e., β-1,3-glucanase as a probe. PR-2 is a pathogenesis-related protein known to degrade […] and thus provide protection against fungal pathogens (U.S. Pat. No. 5,670,706 and Uknes et al., 1992).

soybean plants [3] = test: Drought tolerance of soybean plants; details: for Root gdwt / Leaf gdwt / Leaf gfwt / Root gfwt: variety 2 under drought stress; for Root gdwt / Leaf gdwt: dry weight; for Root gdwt: surfactant 1.16; for Leaf gdwt: surfactant 2.37; for Leaf gfwt / Root gfwt: fresh weight; for Leaf gfwt: surfactant 8.01; for Root gfwt: surfactant 12.88
Method: Drought tolerance is an important agronomic trait. […] Soybean seeds of two varieties (1 and 2) were planted in soil in 4.5 inch pots, 3 seeds per pot. The seeds were germinated and plants grown to the V1 or V2 growth stage. DCSA was prepared (0.36 grams/60 milliliters in 20 percent acetone with 10 percent surfactant) and the plants sprayed with the DCSA solution at a rate equal to 0.5 pounds/Acre (lb/A) or 1.0 (lb/A) at day 0 or day 3 of the experiment. Water was withheld at day 0. The plants were rated on a scale of 1-4 for drought symptoms; 1—no symptoms; 2—minor symptoms, leaf curling and wilting; 3—substantial symptoms and wilting; 4—dead. The treatments were surfactant only, 0.5 lb/A DCSA, and 1.0 lb/A DCSA. The plants were treated with a surfactant or a DCSA solution, water withheld, and drought symptoms rated 2 days after treatment (2DAT), 3 days after treatment (3DAT), and 3DAT after rehydration (water added to soil saturation and plant recovery from drought symptoms measured). Fresh leaf weight (leaf grams fresh weight, leaf gfwt), fresh root weight (root grams fresh weight, root gfwt), leaf dry weight (leaf grams dry weight, leaf gdwt), and root dry weight (root grams dry weight, root gdwt) were measured.

[4] = tested on: wheat seed (spring wheat variety); test: Wheat seed germination in DCSA solution; set-up: key: 1—low; 2—moderate; 3—high; 3+—exceptionally high; details: 22° C., 2DAT, water 1
Method: Wheat seed (spring wheat variety) was germinated in a solution of 0.1, 1, 10, 100, or 1000 μM DCSA or water at 22° C. and rated 2 DAT for germination using the same rating scale as used for soybean.

[5] = individual cotton (ST474) plants 1-8, DCSA 1 lb/A 24 hrs before RKN eggs, 45 days after inoculation

## O=C(O)c1c(Cl)ccc(Cl)c1O [DCSA, 3,6-dichloro salicylic acid]
Pythium ultimum
  survival of cotton plants after inoculation with Pythium ultimum: survive inoculation
Soybean plants [1]; high ozone rate 770 ppm, control lower leaves visibly damaged
  ozone damage symptoms: did not show any lower leaf damage
Soybean plants [1]; low ozone rate 2.8 ppm, controls also without symptoms
  ozone damage symptoms: no symptoms were observed
Meloidogyne incognita; [5]
  Egg Count/pot: 8,160 and 9,120 and 5,200 and 3,720 and 3,360 and 3,040 and 1,800 and 2,200
  Plant Height (cm): 25.4 cm (3×) and 22.2 cm and 17.8 cm and 14.0 cm and 15.9 cm and 12.7 cm
Meloidogyne incognita; individual plants 1-8, 0=no visible galling, 5=heavy galling, 45 days after inoculation
  RKN Gall Rating (0-5): 0 (4×) and 2 and 1 (3×)
Meloidogyne incognita; mean of 8 plants, RKN alone 2.6
  RKN Gall Rating (0-5), Mean: 0.6
Meloidogyne incognita; mean of 8 plants, RKN alone 16.9
  Plant Height (cm), Mean: 19.8 cm
[2]
  induction of PR2 at various rates: induction of PR2
Soybean plants [3]; soybean Variety 1, 0.5 lb/A DCSA, 2DAT, scale 1 no symptoms - 4 dead, surfactant 2
  average drought rating: 2.25
Soybean plants [3]; soybean Variety 1, 0.5 lb/A DCSA, 3DAT fb rehydration, scale 1-4, surfactant 3.25
  average drought rating: 3.75
Soybean plants [3]; soybean Variety 1, 0.5 lb/A DCSA, 3DAT, scale 1-4, surfactant 3.5
  average drought rating: 4
Soybean plants [3]; soybean Variety 1, 1.0 lb/A DCSA, 2DAT, scale 1-4, surfactant 2
  average drought rating: 1.75
Soybean plants [3]; soybean Variety 1, 1.0 lb/A DCSA, 3DAT fb rehydration, scale 1-4, surfactant 3.25
  average drought rating: 3.5
Soybean plants [3]; soybean Variety 1, 1.0 lb/A DCSA, 3DAT, scale 1-4, surfactant 3.5
  average drought rating: 3.75
Soybean plants [3]; soybean Variety 2, 0.5 lb/A DCSA, 2DAT, scale 1 no symptoms - 4 dead, surfactant 1.5
  average drought rating: 1
Soybean plants [3]; soybean Variety 2, 0.5 lb/A DCSA, 3DAT fb rehydration, scale 1-4, surfactant 3
  average drought rating: 2.5
Soybean plants [3]; soybean Variety 2, 0.5 lb/A DCSA, 3DAT, scale 1-4, surfactant 3.5
  average drought rating: 2.5
Soybean plants [3]; soybean Variety 2, 1.0 lb/A DCSA, 2DAT, scale 1-4, surfactant 1.5
  average drought rating: 1.25
Soybean plants [3]; soybean Variety 2, 1.0 lb/A DCSA, 3DAT fb rehydration, scale 1-4, surfactant 3
  average drought rating: 2.5
Soybean plants [3]; soybean Variety 2, 1.0 lb/A DCSA, 3DAT, scale 1-4, surfactant 3.5
  average drought rating: 2.5
Soybean plants [3]; 0.5 lb/A DCSA
  Root gdwt: 1.25 g
  Leaf gdwt: 1.43 g
  Leaf gfwt: 9.45 g
  Root gfwt: 13.74 g
Soybean plants [3]; 1.0 lb/A DCSA
  Root gdwt: 1.34 g
  Leaf gdwt: 2.20 g
  Leaf gfwt: 13.94 g
  Root gfwt: 15.40 g
[4]; 0.1 μM DCSA
  germination rating: 1
[4]; 1 μM DCSA
  germination rating: 1
[4]; 10 μM DCSA
  germination rating: 3
[4]; 100 μM DCSA
  germination rating: 2
[4]; 1000 μM DCSA
  germination rating: 3
